Columns and labels:
ABL1 (T315I) = ABL1 (T315I) (Homo sapiens, UniProt P00519, T315I); test: Luminescence-based ABL kinase assay (ADP-Glo, 300 μM ATP), T315I mutant; format: biochemical
Experimental: (§1) Kinase activity of ABL1 was measured using the ADP-Glo system (Promega), which measures formation of ADP using a luminescence-based method. Compounds were serially diluted in DMSO. 20 nL of compound or DMSO only (high control, HC) were added to a 384-well plate (OptiPlate-384, PerkinElmer) using an Echo550 liquid handler (Labcyte). 15 μL of kinase solution (10 mM MgCl2, 0.01% Brij-35, 2 mM DTT, 0.05% BSA, 1 mM EGTA, 50 mM HEPES pH 7.5, and 3.325 nM ABL1 [Carna Biosciences]) were added to each well of the 384-well plate containing the compounds. No enzyme control wells were included (low control, LC). The plate was incubated at room temperature for 30 minutes. 5 μL of a second solution containing 10 mM MgCl2, 0.01% Brij-35, 2 mM DTT, 0.05% BSA, 1 mM EGTA, 50 mM HEPES pH 7.5, 6 μM Peptide 2 (Perkin Elmer, Cat No 760346), and 1.2 mM ATP were added to each well to start the kinase reaction. The plate was incubated for 90 minutes at room temperature. 20 μL of ADP-Glo reagent (Promega) were then added to each well and the plate was incubated for 40 minutes at room temperature. 40 μL of kinase detection reagent (Promega) was added to each well and the plate was incubated for an additional 45 minutes at room temperature. During this step, ADP was converted to ATP, a substrate for luciferase, to produce luminescence signal. Luminescence was measured on an Envision plate reader (Perkin Elmer). Luminescence signal positively correlates with kinase activity. The percent kinase activity was calculated as follows: percent kinase activity=100×(Lumsample−LumLC)/(LumHC−LumLC). As noted above, DMSO only and no enzyme wells were used as high and low controls, respectively. IC50 values were calculated using the XLFit software.

ABL1 = biological target: T1, ABL1 (Homo sapiens, UniProt P00519); test: Luminescence-based ABL kinase assay (ADP-Glo, 300 μM ATP); format: biochemical
T1 construct: purchased Carna Biosciences
Experimental: as §1

SMILES | IC50 (ABL1 (T315I)) | IC50 (ABL1)
O=C(Nc1ccc2c(-c3cccnc3OCC3CC3)c[nH]c2n1)C1CC1F (single isomer, unassigned) [Example S148, Enantiomer 1, N-(3-(2-(cyclopropylmethoxy)pyridin-3-yl)-1H-pyrrolo[2,3-b]pyridin-6-yl)-2-fluorocyclopropane-1-carboxamide Enantiomer 1] | 1810 nM | 408 nM
COc1c(-c2c[nH]c3nc(NC(=O)C4CC4)ccc23)ccc2[nH]ncc12 [Compound 16, N-[3-(4-methoxy-1H-indazol-5-yl)-1H-pyrrolo[2,3-b]pyridin-6-yl]cyclopropanecarboxamide] | > 10000 nM | > 10000 nM
Cc1cc(N)ncc1-c1c[nH]c2nc(NC(=O)C3CC3)ccc12 [Compound 34, N-[3-(6-amino-4-methylpyridin-3-yl)-1H-pyrrolo[2,3-b]pyridin-6-yl]cyclopropanecarboxamide] | 731 nM | 159 nM
CNc1cc(C)c(-c2c[nH]c3nc(NC(=O)C4CC4)ccc23)cn1 [Compound 35, N-[3-[4-methyl-6-(methylamino)pyridin-3-yl]-1H-pyrrolo[2,3-b]pyridin-6-yl]cyclopropanecarboxamide] | 774 nM | 599 nM
Nc1ncccc1-c1c[nH]c2nc(NC(=O)C3CC3)ccc12 [Compound 36, N-[3-(2-aminopyridin-3-yl)-1H-pyrrolo[2,3-b]pyridin-6-yl]cyclopropanecarboxamide] | 690 nM | 202 nM
Nc1cccc(-c2c[nH]c3nc(NC(=O)C4CC4)ccc23)n1 [Compound 38, N-(3-(6-aminopyridin-2-yl)-1H-pyrrolo[2,3-b]pyridin-6-yl)cyclopropanecarboxamide] | 332 nM | 689 nM

Compounds with a lower IC50 (ABL1 (T315I)), results first:

IC50 (ABL1 (T315I)) | IC50 (ABL1) | SMILES
245 nM | 195 nM | CNc1cccc(-c2c[nH]c3nc(NC(=O)C4CC4)ccc23)n1 [Compound 39, N-(3-(6-(methylamino)pyridin-2-yl)-1H-pyrrolo[2,3-b]pyridin-6-yl)cyclopropanecarboxamide]
170 nM | 121 nM | Nc1ccc(-c2c[nH]c3nc(NC(=O)C4CC4)ccc23)cn1 [Compound 40, N-[3-(6-aminopyridin-3-yl)-1H-pyrrolo[2,3-b]pyridin-6-yl]cyclopropanecarboxamide]
90.2 nM | 148 nM | CNc1ccc(-c2c[nH]c3nc(NC(=O)C4CC4)ccc23)c(OC)n1 [Compound 30, N-[3-[2-methoxy-6-(methylamino)pyridin-3-yl]-1H-pyrrolo[2,3-b]pyridin-6-yl]cyclopropanecarboxamide]
74.3 nM | 776 nM | O=C(Nc1ccc2c(-c3ccc4c(c3)NCC4)c[nH]c2n1)C1CC1 [Compound 25, N-[3-(2,3-dihydro-1H-indol-6-yl)-1H-pyrrolo[2,3-b]pyridin-6-yl]cyclopropanecarboxamide]
27.7 nM | 110 nM | O=C(Nc1ccc2c(-c3ccc4cc[nH]c4c3)c[nH]c2n1)C1CC1 [Compound 20, N-(3-(1H-indol-6-yl)-1H-pyrrolo[2,3-b]pyridin-6-yl)cyclopropanecarboxamide]
27.2 nM | 30 nM | COc1cccc(OC)c1-c1c[nH]c2nc(NC(=O)C3CC3CN3CCNCC3)ccc12 (single isomer, unassigned) [Example S150, Enantiomer 2, N-[3-(2,6-dimethoxyphenyl)-1H-pyrrolo[2,3-b]pyridin-6-yl]-2-(piperazin-1-ylmethyl)cyclopropane-1-carboxamide]
19.5 nM | 151 nM | COc1ccccc1-c1c[nH]c2nc(NC(=O)[C@H]3C[C@@H]3CC#N)ccc12 (relative stereo) [Compound 107, trans-2-(cyanomethyl)-N-(3-(2-methoxyphenyl)-1H-pyrrolo[2,3-b]pyridin-6-yl)cyclopropane-1-carboxamide]
14.5 nM | 33 nM | O=C(Nc1ccc2c(-c3ccc4[nH]ccc4c3)c[nH]c2n1)C1CC1 [Compound 18, N-[3-(1H-indol-5-yl)-1H-pyrrolo[2,3-b]pyridin-6-yl]cyclopropanecarboxamide]
